Series [1] is filed under the species Homo sapiens. Kind of series: Stimulation of immune response in human pDC assessed as induction of IFN-gamma production at 150 ug/ml after 24 hrs. It is filed as functional.
The species named for series [2] is Homo sapiens. Kind of series: Stimulation of immune response in human pDC assessed as induction of IL12 production at 150 ug/ml after 24 hrs. It is filed as functional.
The species named for series [3] is Homo sapiens. Kind of series: Stimulation of immune response in human pDC assessed as induction of MIP1beta production at 150 ug/ml after 24 hrs. The class given is functional.
In series [4] the test system is PBMC. Nature of the series: Stimulation of immune response in human PBMC assessed as induction of TNFalpha production at 150 ug/ml after 24 hrs. It is filed as functional, cell-based.
Series [5] is described as follows: Stability in human serum assessed as full-length compound remaining after 10 mins by anion-exchange HPLC. The class given is ADME, cell-free. As to conditions: read-out: Stability.
In series [6] the test system is PBMC. Kind of series: Stimulation of immune response in human PBMC assessed as induction of MCP1 production at 150 ug/ml after 24 hrs. The class given is functional, cell-based.
The test system of series [7] is PBMC. Kind of series: Stimulation of immune response in human PBMC assessed as induction of MIP1beta production at 150 ug/ml after 24 hrs. It is filed as functional, cell-based.
In series [8] the test system is PBMC. Nature of the series: Stimulation of immune response in human PBMC assessed as induction of IFNalpha production at 150 ug/ml after 24 hrs. The class given is functional, cell-based.
Series [9] deals with PBMC. Kind of series: Stimulation of immune response in human PBMC assessed as induction of IL1-beta production at 150 ug/ml after 24 hrs. It is filed as functional, cell-based.
In series [10] the test system is PBMC. Kind of series: Stimulation of immune response in human PBMC assessed as induction of IFN-gamma production at 150 ug/ml after 24 hrs. It is filed as functional, cell-based.
Series [11] concerns the target T1, Toll-like receptor 7 (Homo sapiens) (UniProt Q9NYK1).
T1 sequence (whole entry): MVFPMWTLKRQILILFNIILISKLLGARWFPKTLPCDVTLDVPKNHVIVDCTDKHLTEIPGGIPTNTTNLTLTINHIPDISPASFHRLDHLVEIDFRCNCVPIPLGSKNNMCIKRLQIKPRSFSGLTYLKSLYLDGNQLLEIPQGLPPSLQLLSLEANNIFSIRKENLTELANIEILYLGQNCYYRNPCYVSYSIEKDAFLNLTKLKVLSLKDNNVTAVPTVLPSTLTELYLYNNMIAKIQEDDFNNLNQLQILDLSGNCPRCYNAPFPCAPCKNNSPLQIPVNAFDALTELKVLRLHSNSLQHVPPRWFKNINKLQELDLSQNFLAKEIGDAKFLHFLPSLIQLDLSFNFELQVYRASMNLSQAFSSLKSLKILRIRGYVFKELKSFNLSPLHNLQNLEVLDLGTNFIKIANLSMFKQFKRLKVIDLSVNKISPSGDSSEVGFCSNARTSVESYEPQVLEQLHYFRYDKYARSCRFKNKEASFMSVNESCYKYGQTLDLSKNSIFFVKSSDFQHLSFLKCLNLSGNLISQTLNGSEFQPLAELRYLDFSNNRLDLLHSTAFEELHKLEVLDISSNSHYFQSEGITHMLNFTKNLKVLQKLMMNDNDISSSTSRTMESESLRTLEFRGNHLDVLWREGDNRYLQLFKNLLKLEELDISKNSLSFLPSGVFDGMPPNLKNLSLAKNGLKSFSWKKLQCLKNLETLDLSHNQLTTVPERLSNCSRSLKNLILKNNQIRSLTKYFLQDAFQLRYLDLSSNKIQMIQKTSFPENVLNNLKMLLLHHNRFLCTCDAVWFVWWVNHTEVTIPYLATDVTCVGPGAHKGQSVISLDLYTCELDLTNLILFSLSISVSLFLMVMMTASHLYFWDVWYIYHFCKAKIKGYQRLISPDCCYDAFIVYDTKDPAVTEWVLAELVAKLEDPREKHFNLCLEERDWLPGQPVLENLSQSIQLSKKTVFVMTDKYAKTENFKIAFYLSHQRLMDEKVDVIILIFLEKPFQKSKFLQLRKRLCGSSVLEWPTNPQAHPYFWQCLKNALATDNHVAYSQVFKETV
Kind of series: Agonist activity at human TLR7 expressed in HEK293XL cells assessed as NF-kappaB activation at 300 ug/ml after 18 hrs. The class given is functional, cell-based.

For series [12], the species on record is Homo sapiens. Nature of the series: Stimulation of immune response in human pDC assessed as induction of TNFalpha production at 150 ug/ml after 24 hrs. It is filed as functional.
Series [13] concerns PBMC. Kind of series: Stimulation of immune response in human PBMC assessed as induction of IL12 production at 150 ug/ml after 24 hrs. It is filed as functional, cell-based.
In another series the test system is Mus musculus. Nature of the series: Stimulation of immune response in C57BL/6 mouse assessed as induction of serum IL12 production at 50 mg/kg, sc after 2 hrs by luminex multiplex assay. It is filed as functional, organism-based. Further details: dose 50 mg/kg.
The subject of series [14] is PBMC. Kind of series: Stimulation of immune response in human PBMC assessed as induction of IL8 production at 150 ug/ml after 24 hrs. It is filed as functional, cell-based.
Series [15] has as its system PBMC. Kind of series: Stimulation of immune response in human PBMC assessed as induction of IL10 production at 150 ug/ml after 24 hrs. The class given is functional, cell-based.
Series [16] concerns the target T2, Toll-like receptor 8 (Homo sapiens) (UniProt Q9NR97).
T2 sequence (whole entry): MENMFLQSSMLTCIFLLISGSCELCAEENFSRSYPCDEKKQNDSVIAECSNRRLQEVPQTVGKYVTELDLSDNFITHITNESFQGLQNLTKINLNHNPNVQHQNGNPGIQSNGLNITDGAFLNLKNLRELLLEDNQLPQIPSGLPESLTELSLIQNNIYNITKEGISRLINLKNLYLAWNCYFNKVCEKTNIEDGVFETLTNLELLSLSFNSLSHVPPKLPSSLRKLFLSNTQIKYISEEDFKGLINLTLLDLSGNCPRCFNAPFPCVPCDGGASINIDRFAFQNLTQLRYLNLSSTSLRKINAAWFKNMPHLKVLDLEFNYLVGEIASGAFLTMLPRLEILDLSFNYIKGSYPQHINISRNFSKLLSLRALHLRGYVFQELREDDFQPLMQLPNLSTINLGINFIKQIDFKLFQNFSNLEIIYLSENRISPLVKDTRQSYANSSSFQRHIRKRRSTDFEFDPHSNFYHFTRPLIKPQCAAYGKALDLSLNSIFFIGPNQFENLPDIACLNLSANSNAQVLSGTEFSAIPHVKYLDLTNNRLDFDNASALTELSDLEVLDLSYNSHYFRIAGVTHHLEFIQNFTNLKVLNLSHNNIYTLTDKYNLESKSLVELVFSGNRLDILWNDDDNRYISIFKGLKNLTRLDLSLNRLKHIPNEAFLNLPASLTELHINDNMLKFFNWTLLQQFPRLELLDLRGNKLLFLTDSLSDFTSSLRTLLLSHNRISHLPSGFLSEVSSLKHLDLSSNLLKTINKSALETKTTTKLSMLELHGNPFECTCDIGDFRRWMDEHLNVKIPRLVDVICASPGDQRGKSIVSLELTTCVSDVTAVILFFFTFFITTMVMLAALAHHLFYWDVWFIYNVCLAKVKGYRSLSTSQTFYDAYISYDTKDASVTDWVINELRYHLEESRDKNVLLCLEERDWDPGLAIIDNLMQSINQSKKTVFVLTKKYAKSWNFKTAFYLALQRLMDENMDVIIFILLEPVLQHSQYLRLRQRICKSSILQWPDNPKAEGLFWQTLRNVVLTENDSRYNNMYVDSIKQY
Nature of the series: Agonist activity at human TLR8 expressed in HEK293XL cells assessed as NF-kappaB activation after 18 hrs. The class given is functional, cell-based.

The subject of series [17] is PBMC. Kind of series: Stimulation of immune response in human PBMC assessed as induction of RANTES production at 150 ug/ml after 24 hrs. The class given is functional, cell-based.
The subject of series [18] is PBMC. Kind of series: Stimulation of immune response in human PBMC assessed as induction of MIP1alpha production at 150 ug/ml after 24 hrs. The class given is functional, cell-based.
In series [19] the test system is PBMC. Kind of series: Stimulation of immune response in human PBMC assessed as induction of IL2R level at 150 ug/ml after 24 hrs. The class given is functional, cell-based.
Series [20] is filed under the species Homo sapiens. Kind of series: Stimulation of immune response in human pDC assessed as induction of MIP1alpha production at 150 ug/ml after 24 hrs. It is filed as functional.
Series [21] is filed under the species Homo sapiens. Kind of series: Stimulation of immune response in human pDC assessed as induction of IFNalpha production at 150 ug/ml after 24 hrs. The class given is functional.

The source made the active and inactive calls. The calls are words filed in the database; no cut-off is given here.

Take `Nc1ccn([C@@H]2O[C@H](COP(=O)(S)O[C@H]3[C@@H](O)[C@H](n4ccc(=O)[nH]c4=O)O[C@@H]3COP(=O)(S)O[C@H]3[C@@H](O)[C@H](n4ccc(=O)[nH]c4=O)O[C@@H]3COP(=O)(S)O[C@H]3[C@H](O)[C@H](n4cnc5c(=O)[nH]c(N)nc54)O[C@@H]3COP(=O)(S)O[C@H]3[C@@H](O)[C@H](n4ccc(=O)[nH]c4=O)O[C@@H]3COP(=O)(S)O[C@H]3[C@H](O)[C@H](n4cnc5c(=O)[nH]c(N)nc54)O[C@@H]3COP(=O)(S)OCC(O)COP(=O)(S)O[C@H]3[C@H](O)[C@H](n4cnc5c(=O)[nH]c(N)nc54)O[C@@H]3COP(=O)(S)O[C@H]3[C@@H](O)[C@H](n4ccc(=O)[nH]c4=O)O[C@@H]3COP(=O)(S)O[C@H]3[C@H](O)[C@H](n4cnc5c(=O)[nH]c(N)nc54)O[C@@H]3COP(=O)(S)O[C@H]3[C@@H](O)[C@H](n4ccc(=O)[nH]c4=O)O[C@@H]3COP(=O)(S)O[C@H]3[C@@H](O)[C@H](n4ccc(=O)[nH]c4=O)O[C@@H]3COP(=O)(S)O[C@H]3[C@@H](O)[C@H](n4ccc(N)nc4=O)O[C@@H]3COP(=O)(S)O[C@H]3[C@H](O)[C@H](n4cnc5c(=O)[nH]c(N)nc54)O[C@@H]3COP(=O)(S)O[C@H]3[C@@H](O)[C@H](n4ccc(=O)[nH]c4=O)O[C@@H]3COP(=O)(S)O[C@H]3[C@@H](O)[C@H](n4ccc(N)nc4=O)O[C@@H]3COP(=O)(S)O[C@H]3[C@H](O)[C@H](n4cnc5c(=O)[nH]c(N)nc54)O[C@@H]3COP(=O)(S)O[C@H]3[C@@H](O)[C@H](n4ccc(=O)[nH]c4=O)O[C@@H]3CO)[C@@H](OP(=O)(S)OC[C@H]3O[C@@H](n4cnc5c(=O)[nH]c(N)nc54)[C@@H](O)[C@@H]3OP(=O)(S)OC[C@H]3O[C@@H](n4ccc(=O)[nH]c4=O)[C@H](O)[C@@H]3OP(=O)(S)OC[C@H]3O[C@@H](n4ccc(N)nc4=O)[C@H](O)[C@@H]3OP(=O)(S)OC[C@H]3O[C@@H](n4cnc5c(=O)[nH]c(N)nc54)[C@@H](O)[C@@H]3OP(=O)(S)OC[C@H]3O[C@@H](n4ccc(=O)[nH]c4=O)[C@H](O)[C@@H]3OP(=O)(O)S)[C@H]2O)c(=O)n1` (some centres not stated): the result in the series filed under Homo sapiens [1], in the series filed under Homo sapiens [2], in the series listed under Homo sapiens [3], with PBMC [4], with PBMC [6] and in the series on PBMC [7] was Active. For the same molecule, the outcome with PBMC [8], in the series with PBMC [9], with PBMC [10], in the series filed under Homo sapiens [12], in the series on PBMC [13] and with PBMC [14] was Active. The result with PBMC [15], in the series with PBMC [17], in the series on PBMC [18], in the series on PBMC [19] and in the series filed under Homo sapiens [20] was Active. The remaining at 10 min in series [5] turned out to be 76%. Besides, the outcome (in series [11]; with Mus musculus; in the series listed under Homo sapiens [21]) was inactive. Further, in [16], the Activity result was “Dose-dependent effect”.

Source of the values: ChEMBL document CHEMBL1151840, “Synthetic oligoribonucleotides containing arabinonucleotides act as agonists of TLR7 and 8” (Bioorg Med Chem Lett, 2009).
